Experimental data as given in paper PMC9064382 (RSC Advances, 2019).
pKi: −log10 of the molar value.

How the values were obtained:
[1] = type: in vivo, Sprague-Dawley (SD) rats; conditions: aconitine 0.5 mg kg^−1 oral; pretreatment 15 min before; n = 6
hOATP1B3 = biological target: T1, hOATP1B3 (Homo sapiens, UniProt Q9NPD5); assay: Uptake of aconitum alkaloids in hOATP1B3-transfected HEK293 cells vs mock; type: in vitro ADME; conditions: 10 μm, 2 min
T1 sequence (Q9NPD5 1-702): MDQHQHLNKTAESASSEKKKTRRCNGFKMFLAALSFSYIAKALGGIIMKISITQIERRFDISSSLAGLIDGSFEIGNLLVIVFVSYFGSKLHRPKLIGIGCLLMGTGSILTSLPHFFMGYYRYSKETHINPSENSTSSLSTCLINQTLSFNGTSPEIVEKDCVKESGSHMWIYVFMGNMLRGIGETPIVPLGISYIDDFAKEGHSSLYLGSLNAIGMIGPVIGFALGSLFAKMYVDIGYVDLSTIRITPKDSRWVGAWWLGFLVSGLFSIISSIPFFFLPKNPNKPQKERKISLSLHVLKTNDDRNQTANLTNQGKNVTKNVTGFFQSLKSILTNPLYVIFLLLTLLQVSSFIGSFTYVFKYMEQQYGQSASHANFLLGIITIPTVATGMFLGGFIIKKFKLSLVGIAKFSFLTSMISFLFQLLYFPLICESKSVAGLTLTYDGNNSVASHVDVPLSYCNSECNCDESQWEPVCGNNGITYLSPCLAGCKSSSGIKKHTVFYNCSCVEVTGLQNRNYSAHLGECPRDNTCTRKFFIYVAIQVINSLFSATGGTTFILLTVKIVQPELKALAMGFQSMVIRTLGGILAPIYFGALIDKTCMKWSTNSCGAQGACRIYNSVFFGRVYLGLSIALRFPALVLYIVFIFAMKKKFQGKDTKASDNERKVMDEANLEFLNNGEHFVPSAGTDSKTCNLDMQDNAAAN

[2] = type: in vivo, Sprague-Dawley (SD) rats; conditions: aconitine 0.5 mg kg^−1 oral; pretreatment 15 min before; n = 6; remark: listed apart in the source
hOCT1 = biological target: T2, hOCT1 (Homo sapiens, UniProt O15245); assay: Uptake of aconitum alkaloids in hOCT1-transfected cells vs mock; type: in vitro ADME; conditions: 10 μm, 5 min
T2 sequence (O15245 1-554): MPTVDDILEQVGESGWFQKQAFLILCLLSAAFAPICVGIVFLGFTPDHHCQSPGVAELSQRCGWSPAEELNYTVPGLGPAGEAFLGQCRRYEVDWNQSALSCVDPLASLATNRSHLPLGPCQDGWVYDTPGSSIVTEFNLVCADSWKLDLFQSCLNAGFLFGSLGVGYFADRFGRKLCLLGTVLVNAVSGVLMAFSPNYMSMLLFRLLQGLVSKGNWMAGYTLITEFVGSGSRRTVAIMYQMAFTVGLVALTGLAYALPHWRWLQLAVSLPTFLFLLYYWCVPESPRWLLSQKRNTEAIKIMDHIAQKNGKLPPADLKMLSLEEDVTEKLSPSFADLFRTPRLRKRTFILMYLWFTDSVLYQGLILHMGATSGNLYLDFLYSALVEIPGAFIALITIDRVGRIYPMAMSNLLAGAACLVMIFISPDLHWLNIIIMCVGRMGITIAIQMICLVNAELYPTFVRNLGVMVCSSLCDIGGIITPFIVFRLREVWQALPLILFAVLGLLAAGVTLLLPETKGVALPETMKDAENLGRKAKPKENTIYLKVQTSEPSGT

OCT2 = conditions: read-out: Ki, competitive inhibition of OCT2; TEA probe substrate; cited from earlier work

CCN1C[C@]2(COC)[C@H](O)C[C@H](OC)[C@@]34[C@@H]5C[C@@]6(O)[C@H](OC(=O)c7ccccc7)[C@@H]5[C@@](OC(C)=O)([C@@H]([C@H](OC)[C@H]23)[C@@H]14)[C@@H](O)[C@@H]6OC [aconitine]
AUC(0–2 h) of aconitine in rat kidneys [1]: 60.5 ± 6.8 ng/h/g
uptake in hOATP1B3-transfected cells, adjusted by protein concentration (hOATP1B3; HEK293-hOATP1B3): 344 pmol mg^−1 protein
concentration in hOATP1B3-transfected cells, fold of HEK293 mock cells (hOATP1B3; HEK293-hOATP1B3 vs mock): 1.35 fold
AUC(0–2 h) of aconitine in rat liver [2]: 100.3 ± 8.9 ng/h/g
concentration in HEK293–hOCT1, fold higher than control (hOCT1): roughly 1.9 fold
pKi (OCT2): 3.84
